Measured values taken from ChEMBL document CHEMBL5346896, “Development of indolealkylamine derivatives as potential multi-target agents for COVID-19 treatment” (Eur J Med Chem, 2023).
Active and inactive are the calls of the source. No cut-off for these calls is given here.

Assays:
[1] = species on record: Homo sapiens; test: Inhibition of CAMKII (unknown origin) using syntide-2 as substrate assessed as maximum efficacy at 50 uM incubated for 30 mins by spectrophotometric analysis relative to control
[2] = target: Angiotensin-converting enzyme 2 (Homo sapiens) (UniProt Q9BYF1); test: Inhibition of recombinant ACE2 (unknown origin) exopeptidase activity using fluorogenic substrate at 0.5 to 10 uM incubated for 1 hrs by fluorescence based analysis; settings: dose 0.5-10 µM
Chain of Angiotensin-converting enzyme 2 (Homo sapiens) (Q9BYF1 18-805 limits assumed): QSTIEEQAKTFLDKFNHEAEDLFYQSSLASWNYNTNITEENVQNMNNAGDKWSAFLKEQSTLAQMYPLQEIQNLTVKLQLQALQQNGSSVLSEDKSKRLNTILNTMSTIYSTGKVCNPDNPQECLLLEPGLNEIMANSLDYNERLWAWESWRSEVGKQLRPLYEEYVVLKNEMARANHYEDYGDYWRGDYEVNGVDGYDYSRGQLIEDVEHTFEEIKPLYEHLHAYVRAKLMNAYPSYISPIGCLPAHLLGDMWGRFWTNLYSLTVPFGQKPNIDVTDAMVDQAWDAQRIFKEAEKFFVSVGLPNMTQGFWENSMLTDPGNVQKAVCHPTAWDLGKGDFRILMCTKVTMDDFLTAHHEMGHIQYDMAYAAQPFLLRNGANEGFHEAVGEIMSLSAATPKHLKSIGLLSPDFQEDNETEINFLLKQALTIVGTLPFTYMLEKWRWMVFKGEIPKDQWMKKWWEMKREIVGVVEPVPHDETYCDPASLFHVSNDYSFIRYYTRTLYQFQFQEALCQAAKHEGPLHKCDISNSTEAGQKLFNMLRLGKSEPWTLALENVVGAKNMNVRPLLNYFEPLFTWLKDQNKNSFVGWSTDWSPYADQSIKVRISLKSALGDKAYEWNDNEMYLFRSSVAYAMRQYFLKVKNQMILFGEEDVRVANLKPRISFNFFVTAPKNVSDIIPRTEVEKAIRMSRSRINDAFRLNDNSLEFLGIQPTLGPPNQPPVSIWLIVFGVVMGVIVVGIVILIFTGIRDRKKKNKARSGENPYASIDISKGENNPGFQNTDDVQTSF

[3] = target: T1, Melatonin receptor type 1B (Homo sapiens, UniProt P49286); test: Displacement of 2-[125I]iodomelatonin from human melatonin MT2 receptor stably expressed in human HEK293 cell membrane assessed as inhibition constant incubated for 120 mins by rapid filtration based competition binding assay; type: cell membranes
T1 sequence (P49286 whole entry): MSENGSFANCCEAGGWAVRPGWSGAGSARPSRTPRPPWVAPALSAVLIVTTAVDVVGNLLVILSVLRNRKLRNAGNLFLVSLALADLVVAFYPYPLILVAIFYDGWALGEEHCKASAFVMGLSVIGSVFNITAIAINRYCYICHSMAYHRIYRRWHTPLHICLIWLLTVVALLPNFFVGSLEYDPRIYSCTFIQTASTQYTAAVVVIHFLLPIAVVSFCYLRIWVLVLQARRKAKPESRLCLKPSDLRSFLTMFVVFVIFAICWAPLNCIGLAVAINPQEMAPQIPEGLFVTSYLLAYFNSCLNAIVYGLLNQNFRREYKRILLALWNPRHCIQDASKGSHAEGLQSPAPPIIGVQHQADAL

[4] = species on record: Homo sapiens; test: Selectivity ratio of pKi for displacement of 2-[125I]iodomelatonin from human melatonin MT1 receptor stably expressed in human HEK293 cell membrane to pKi for displacement of 2-[125I]iodomelatonin from human melatonin MT2 receptor stably expressed in human HEK293 cell membrane
[5] = target: T2, Melatonin receptor type 1A (Homo sapiens, UniProt P48039); test: Displacement of 2-[125I]iodomelatonin from human melatonin MT1 receptor stably expressed in HEK293 cell membrane assessed as inhibition constant incubated for 120 mins by rapid filtration based competition binding assay; type: cell membranes
T2 sequence (P48039 whole entry): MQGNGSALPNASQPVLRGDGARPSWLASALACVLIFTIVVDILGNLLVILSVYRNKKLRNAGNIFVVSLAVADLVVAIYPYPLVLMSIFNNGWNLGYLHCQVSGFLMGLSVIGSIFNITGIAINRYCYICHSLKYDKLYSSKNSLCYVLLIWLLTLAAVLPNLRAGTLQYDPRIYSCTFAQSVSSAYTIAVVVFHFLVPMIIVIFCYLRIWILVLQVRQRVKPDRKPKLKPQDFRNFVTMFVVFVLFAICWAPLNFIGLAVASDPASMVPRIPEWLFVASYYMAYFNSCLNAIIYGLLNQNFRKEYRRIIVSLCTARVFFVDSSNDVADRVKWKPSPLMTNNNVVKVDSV

[6] = target: Spike glycoprotein/Angiotensin-converting enzyme 2 (Severe acute respiratory syndrome coronavirus 2) (UniProt Q9BYF1+P0DTC2); test: Inhibition of d2-labelled SARS-CoV-2 spike protein RBD-terbium labelled SNAP tagged human ACE2 interaction transfected in HEK293 cells at 100 uM preincubated with cells for 1 hrs followed by RBD-d2 addition and measured after 2 hrs by TR-FRET assay relative to control; type: cell-based; settings: time 3.0 hrs
[7] = target: T1, Melatonin receptor type 1B; test: Partial agonist activity at human melatonin MT2 receptor expressed in HEK293 cells co-transfected with Galphai9 chimera construct assessed as stimulation of inositol phosphate production by HTRF based assay; type: functional, cell-based
[8] = target: T2, Melatonin receptor type 1A; test: Partial agonist activity at human melatonin MT1 receptor expressed in HEK293 cells co-transfected with Galphai9 chimera construct assessed as stimulation of inositol phosphate production by HTRF based assay; type: functional, cell-based
[9] = target: Angiotensin-converting enzyme 2 (Homo sapiens) (UniProt Q9BYF1); test: Inhibition of recombinant ACE2 (unknown origin) exopeptidase activity using fluorogenic substrate at 0.5 to 10 uM incubated for 1 hrs by fluorescence based analysis relative to control; settings: dose 0.5-10 µM
[10] = Inhibition of CAMKII (unknown origin) using syntide-2 as substrate assessed as maximum efficacy incubated for 30 mins by spectrophotometric analysis; design: species or system Homo sapiens
[11] = test system: Vero; test: Cytotoxicity against African green monkey Vero cells assessed as effect on cell viability; type: toxicity, cell-based; settings: chlorocebus sabaeus
[12] = test system: SARS-CoV-2; test: Antiviral activity against SARS-CoV-2 infected in African green monkey Vero cells assessed as inhibition of viral replication at 1 uM preincubated with cells for 1 hrs followed by viral infection by FISH-flow quantification analysis; type: functional, organism-based; settings: Severe acute respiratory syndrome coronavirus 2
[13] = test system: SARS-CoV-2; test: Antiviral activity against SARS-CoV-2 infected in African green monkey Vero cells assessed as inhibition of viral replication at 10 uM preincubated with cells for 1 hrs followed by viral infection by FISH-flow quantification analysis; type: functional, organism-based; settings: Severe acute respiratory syndrome coronavirus 2
[14] = target: Replicase polyprotein 1ab (Severe acute respiratory syndrome coronavirus 2) (UniProt P0DTD1); test: Inhibition of SARS-CoV-2 main protease transfected in HEK293T cells co-transfected with gain of signal Src and Tat-Luc reporter construct at 1 uM measured 48 hrs post transfection by luciferase based analysis relative to control; type: cell-based
[15] = test system: HEK-293T; test: Cytotoxicity against HEK293T cells expressing human ACE2 assessed as effect on cell viability; type: toxicity, cell-based
[16] = test system: Vero; test: Cytotoxicity against African green monkey Vero cells infected with SARS-CoV-2 assessed as effect on cell viability; type: toxicity, cell-based; settings: chlorocebus sabaeus
[17] = target: T2, Melatonin receptor type 1A; test: Inverse agonist activity at human melatonin MT1 receptor expressed in HEK293 cells co-transfected with Galphai9 chimera construct assessed as stimulation of inositol phosphate production by HTRF based assay; type: functional, cell-based
[18] = test system: SARS-CoV-2; test: Antiviral activity against SARS-CoV-2 assessed as inhibition of viral replication; type: functional, organism-based; settings: Severe acute respiratory syndrome coronavirus 2

SMILES | Imax [1] [%] | inhibition [2] | Ki [3] [µM] | Ratio pKi [4] | Ki [5] [µM] | inhibition [6] [%] | further results
COc1ccc2[nH]cc(CCNC(C)=O)c2c1 | 20 |  |  |  |  |  | 
COC(=O)NCCc1c(C(O)c2ccc(OC)cc2)[nH]c2ccc(OC)cc12 (centres undefined) |  | inactive | 66.1 | 0.94 | 110 | 20 | 
CCC(=O)NCC[C@@H]1CCc2ccc3c(c21)CCO3 | 20 |  |  |  |  |  | 
COC(=O)NCCc1c(C(O)c2ccc(OC)cc2F)[nH]c2ccc(OC)cc12 (centres undefined) |  | inactive | 4.9 | 1.07 | 2.04 |  | EC50 [7]: < 10 µM; EC50 [8]: < 10 µM
CC(=O)NCC(=O)N[C@@H](CC(=O)O)C(=O)N[C@@H](Cc1ccc(O)cc1)C(=O)N[C@@H](CO)C(=O)N[C@@H](Cc1cnc[nH]1)C(=O)N[C@H]1CSSC[C@@H](C(=O)N[C@H](C(=O)N[C@@H](Cc2ccc(O)cc2)C(=O)N2CCC[C@H]2C(=O)N[C@@H](CC(=O)O)C(=O)N2CCC[C@H]2C(=O)N[C@@H](CCC(=O)O)C(=O)NCC(=O)NCC(=O)NCC(N)=O)[C@@H](C)O)NC(=O)[C@H](CCCCN)NC(=O)[C@H](Cc2c[nH]c3ccccc23)NC(=O)[C@H](Cc2c[nH]c3ccccc23)NC(=O)[C@@H]2CCCN2C(=O)[C@H](Cc2ccc(O)cc2)NC(=O)[C@H](Cc2ccc(O)cc2)NC(=O)[C@H](CCCNC(=N)N)NC(=O)[C@H](CC(C)C)NC(=O)[C@@H]2CCCN2C(=O)[C@H](CO)NC1=O |  |  |  |  |  |  | inhibition [9]: 100%
COc1ccc(C(O)c2[nH]c3ccc(OC)cc3c2CCNC(C)=O)c(F)c1 (centres undefined) |  | inactive | 0.295 | 0.79 | 6.76 |  | 
COc1ccc(C(O)c2[nH]c3ccc(OC)cc3c2CCNC(C)=O)cc1 (centres undefined) |  | inactive | 0.427 | 0.8 | 7.59 | 20 | 
COc1ccc2[nH]c(C(O)c3ccccc3)c(CCNC(C)=O)c2c1 (centres undefined) |  | inactive | 0.977 | 0.98 | 1.26 | 20 | EC50 [7]: 0.224 µM; EC50 [8]: 0.525 µM
COc1ccc2[nH]c(C(O)c3ccc(F)cc3)c(CCNC(C)=O)c2c1 (centres undefined) | 40 | inactive | 4.57 | 0.98 | 5.37 | 20 | EC50 [7]: < 10 µM; EC50 [8]: < 10 µM; EC50 [10]: ~25 µM
COc1ccc2cccc(CCNC(C)=O)c2c1 | 20 |  |  |  |  |  | 
COc1ccc2[nH]c(C(O)c3ccc(Cl)cc3)c(CCNC(C)=O)c2c1 (centres undefined) | 40 | inactive | 0.0513 |  | 0.513 | 35 | Activity [11]: Non-Toxic; Activity [12]: inactive; Activity [13]: inactive; EC50 [10]: ~25 µM; inhibition [14]: < 20%; Activity [15]: Non-Toxic; Activity [16]: Non-Toxic
COC(=O)NCCc1c(C(O)c2ccc(Cl)cc2)[nH]c2ccccc12 (centres undefined) |  |  | 5.25 | 0.87 | 25.1 |  | 
O=C(NCCc1c(C(O)c2ccccc2)[nH]c2ccccc12)C(F)(F)F (centres undefined) |  |  | 1.15 | 0.94 | 2.51 |  | EC50 [17]: < 10 µM
COC(=O)NCCc1c(C(O)c2ccccc2)[nH]c2ccccc12 (centres undefined) |  |  | 2 | 0.81 | 22.9 |  | 
COC(=O)NCCc1c(C(O)c2ccccc2)[nH]c2ccc(OC)cc12 (centres undefined) | 40 | inactive | 0.191 |  | 0.891 | 20 | Activity [11]: Non-Toxic; EC50 [7]: < 10 µM; Activity [12]: inactive; Activity [13]: Active; EC50 [8]: < 10 µM; EC50 [10]: ~25 µM; inhibition [14]: > 70%; Activity [15]: Non-Toxic; Activity [16]: Non-Toxic
COC(=O)NCCc1c(C(O)c2ccc(F)cc2)[nH]c2ccc(OC)cc12 (centres undefined) |  | inactive | 0.741 | 0.94 | 1.82 |  | EC50 [7]: 0.257 µM; EC50 [8]: 3.16 µM
CC(=O)NCCc1c(C(O)c2ccccc2)[nH]c2ccccc12 (centres undefined) |  |  | 1 | 0.93 | 2.75 |  | 
O=C(Oc1cncc(Cl)c1)c1cccc2[nH]ccc12 |  |  |  |  |  |  | IC50 [18]: 2.8 µM
CC(=O)NCCc1c(C(O)c2ccc(Cl)cc2)[nH]c2ccccc12 (centres undefined) |  | inactive | 4.37 | 0.99 | 4.47 | 20 | 
CN1CC(=O)NC(CCc2c(C(O)c3ccccc3N)[nH]c3ccccc23)C1=O (centres undefined) |  |  | 17 | 0.92 | 41.7 |  | 
